Data set [1] is described as follows: One month toxicology evaluation: C5b9 and MCP-1 serum concentration in cynomolgus monkeys. The note with it: 1 mg/kg mRNA, day 1 and day 29, vs PBS. It counts as in vivo. The text has this:
FIGS. 33A and 33B are a pair of graphs summarizing the results of a one month toxicology evaluation in rats and non-human primates.

The test system of data set [2] is C5b9. The data set is described as follows: Complement activation indicators in non-human primates. It counts as in vivo, Cynomolgus monkeys. Here is the method:
(§1) The tolerability and efficacy of nanoparticle compositions to non-human primates was also investigated using a sample formulation including Compound 18. The formulation was prepared according to the standard MC3 formulation described above and included an hEPO mRNA. Primates were administered a single dose of 0.05 (Group 1), 0.3 (Group 2), or 1.0 (Group 3) mpk via intravenous infusion for 60 minutes. Three primates were administered each dose. Expression of hEPO was measured prior to dosing and at 2, 6, 24, 48, and 96 hours post-treatment (Table 26). Table 28 includes levels of indicators of complement activation, while Table 29 includes cytokine induction data.
(§2) Serum C5b9 levels: C5b9 sample analysis was performed using an ELISA method. The kit used was Human C5b-9 ELISA Set and Reagent Set B from BD Bioscience. Study samples were analyzed in singlicate diluted 1/100.

The subject of data set [3] is human hepatocytes. Kind of data set: Metabolite profiling of Compound 18 with human hepatocytes. It counts as in vitro ADME. The note with it: Compound 18 (10 μM), human hepatocytes. More on the design: key to Detection in incubation: +: Detected; ND: Not detected. The protocol: The results of metabolic profiling and characterization for compound 18 incubated with human hepatocytes or human plasma are summarized in Tables 41 and 42, respectively.

Data set [4] can be described thus: Metabolite identification of Compound 18 in human plasma. The note with it: for Detection in incubation: Compound 18 (10 μM), human plasma. More on the design: key to Detection in incubation: +: Detected; ND: Not detected. It counts as in vitro ADME. The protocol:
Metabolite Identification: Compound 18 (10 μM) was incubated with human plasma (29.0 mg protein/incubation) in incubation mixtures (200 μL final incubation volume) that consisted of 50/50v/v neat plasma (undiluted)/substrate solution in 50 mM phosphate buffer, pH 7.4). The plasma was obtained from male and female donors and contained K2EDTA anticoagulant. Reactions were started by addition of the substrate solution to human plasma and were stopped at four designated time points (0, 30, 60 and 90 min) by the addition of 600 μL of stop reagent (acetonitrile). Stopped incubation samples were centrifuged (e.g., 10,000×g for 10 min at 10° C.) and the supernatant fractions were analyzed by LC-MS/MS to characterize the metabolites formed from compound 18. Additional incubations were performed with the positive control procaine (5 μM) to establish competency of the test system. Samples were analyzed by LC-MS/MS.

Data set [5] is described as follows: One-month toxicological evaluation with weekly dosing in rat. It counts as in vivo, Sprague Dawley rat. The note with it: weekly dosing 0.05, 0.5 and 2 mg/kg, one-month study. The protocol: (§3) Serum ALT and AST levels: Samples were analyzed using a Modular Analytics analyzer.
(§4) Next, tolerability and safety of the compound 18-based LNPs in vivo was tested. A full toxicological evaluation of compound 18-based LNPs in both Sprague Dawley rat and cynomolgus monkey was performed using a standard one-month study with weekly dosing at three dose levels in each species. Rats were dosed at 0.05, 0.5, and 2 mg/kg and a non-human primates was dosed at 0.1, 0.3, and 1 mg/kg. LNP-related toxicities associated with MC3-based LNP systems are generally associated with immunological (cytokine and complement activation) and hepatic injury. […] FIGS. 32 and 33 highlight the day 30 levels of alanine transferase (ALT, FIG. 32A) and aspartate aminotransferase (AST, FIG. 32B), two indicators of liver damage.

Data set [6] can be described thus: One-month toxicological evaluation with weekly dosing in cynomolgus monkey. It counts as in vivo. Here is the method:
as §3, §2
bDNA for measurement of mRNA levels: mRNA sample analysis (bDNA method) was performed using the QuantiGene® 2.0 Reagent System kit from Affymetrix. Study samples were lysed prior to analysis using the QuantiGene Sample Processing Kit (Blood samples). Study samples were analyzed in duplicate diluted between 1/100 and 1/1250000.
as §4

In data set [7] the test system is ApoE-mediated LDLr dependent uptake. Kind of data set: Expression in ApoE knockout mice and LDLr knockout mice. The note with it: mouse, in vivo.
A short description of data set [8]: Tolerability of Compound 18 formulation in non-human primates, single dose. The data set is classed as in vivo. The protocol:
as §1
In general, lower doses were better tolerated. High doses induced body temperature elevation and hunched posture, which is similar to the behavior observed for primates administered higher doses of MC3 formulations.

The conditions of data set [9]: Sprague Dawley, rat, in vivo, iv, 5 mg/kg, 20 min.
Description: Sprague Dawley rats were administered with nanoparticles of the disclosure via i.v. bolus at 5 mpk. The nanoparticle contained two mRNA encoding a broadly neutralizing influenza antibody in a 2:1 ratio.
Data set [10] is described as follows: Lipid tissue accumulation in NHP after a single dose. The note with it: 12 hours post dose.
The nature of data set [11]: MC3 single cell necrosis in rat liver and liver enzymes. The following applies: rat liver. The data set is classed as in vivo, rats. The protocol:
FIG. 37 is a series of graphs illustrating MC3 single cell necrosis in rat liver and liver enzyme. The top row is a pair of images of livers of rats administered with 0.3 mg/kg of a […] (LNP) not containing an mRNA (right) and PBS (phosphate buffered saline) as a control (left). The bottom row is a pair of graphs showing expression of ALT (left) and AST(right) in the liver following administration of a 0.3 mg/kg of a MC3-based LNP containing an mRNA.

In data set [12] the test system is hEPO mRNA. Kind of data set: Pretreatment study in Cynomolgus monkeys (standard MC3 formulation, hEPO mRNA). The data set is classed as in vivo. The note with it: once weekly for four weeks, absence of any pretreatment. Here is the method:
The effects of pretreatment to non-human primates were evaluated using a standard MC3 formulation including an mRNA encoding hEPO. Male monkeys were administered the nanoparticle composition once weekly for four weeks at a dose rate of 5 ml/kg/h and were pretreated with either methotrexate or dexamethasone.
As shown, in the absence of any pretreatment, maximal expression levels decreased nearly 70% over the course of the study.

Where [13] appears, read: single dose 0.05, 0.3 or 1.0 mpk, i.v. infusion 60 minutes.
[14] abbreviates: 0.3 mg/kg of MC3-based LNP containing an mRNA.

The structures appear in SMILES notation.

Turning to `CCCCCCCCCOC(=O)CCCCCCCN(CCO)CCCCCCCC(=O)OC(CCCCCCCC)CCCCCCCC` [Compound 18, Heptadecan-9-yl 8-((2-hydroxyethyl)(8-(nonyloxy)-8-oxooctyl)amino)octanoate], the C5b9 serum concentration result in data set [1] (all timepoints) is on record as “No statistical difference”. Further, the MCP-1 serum concentration entry in data set [1] (any timepoint other than the one marked *p<0.05) is given as “no statistical difference”. For the same compound, the C3a in data set [2] (0.05 mpk, 2 h) is 19236 ng/mL; in data set [2] (0.05 mpk, Predose) it was 10600 ng/mL; in [2] (0.3 mpk, 2 h), 42897 ng/mL; in data set [2] (0.3 mpk, Predose) it was 9827 ng/mL; in [2] (1.0 mpk, 2 h) it was 75936 ng/mL; in data set [2] (1.0 mpk, Predose) it was 12792 ng/mL. For the same compound, the C5b9 in data set [2] (0.05 mpk, 24 h) came to 265 ng/mL; in data set [2] (0.05 mpk, Day 5), 163 ng/mL; in data set [2] (0.3 mpk, 24 h) it was 614 ng/mL; in data set [2] (0.3 mpk, Day 5), 405 ng/mL; in [2] (1.0 mpk, 24 h), 4798 ng/mL; in data set [2] (1.0 mpk, Day 5) it was 534 ng/mL. Besides, the Detection in incubation entry in [3] (0 min), in [3] (60 min), in [3] (120 min), in [3] (240 min), in [4] (0 min) and in [4] (30 min) was “+” throughout. Also, the Detection in incubation result in [4] (60 min) and in data set [4] (90 min) was “+” throughout. Further, the “initial step of metabolism” value in data set [4] (in vitro metabolite identification studies) is given as “primary ester hydrolysis to compound 166”. Besides, the adverse findings entry in data set [5] was “no adverse findings”. The “ALT and AST levels” value in data set [6] (1 mg/kg dose, day 30) is “at the same level as the control”. Further, the C5b9 levels entry in [6] (after dose 1 or dose 5) is “no significant change”. Besides, in data set [7], the “expression in ApoE knockout mice and LDLr knockout mice” value is given as “almost complete loss in expression”. For the same compound, the reticulocyte counts result in data set [8] (all groups, Day 5) is reported as “marked increase”. Further, the “tolerability of the formulation” value in data set [8] (non-human primates, single dose) is reported as “tolerated similarly to the MC3 formulation”. Also, the “Complement activation and cytokine release (IL-6 and MCP-1)” value in data set [8] (single dose 0.05, 0.3 or 1.0 mpk) was “dose-related and reversible”. Further, the “Alanine aminotransferase (ALT) levels” value in data set [8] (setting [13]) was “did not increase”. Moreover, in data set [8] (setting [13]), the “Aspartate aminotransferase (AST)” value was “increased in the high dose group on Day 2 and returned to baseline by Day 5”. The “Clinical Observations” value in [9] was 20 min- Flushed ears and paws. Also, the “lipid levels in tissues” value in [10] was “significantly lower levels”.
As for `CCCCC/C=C\C/C=C\CCCCCCCCC(CCCCCCCC/C=C\C/C=C\CCCCC)OC(=O)CCCN(C)C` [MC3, DLin-MC3-DMA, reference compound], the pathology entry in [11] (0.3 mg/kg MC3-based LNP) was “evidence of necrosis”. For the same compound, in data set [11] (setting [14]), the ALT entry is recorded as “elevated” and the AST result is listed as “elevated”. Besides, the “decrease of maximal expression levels over the course of the study” value in data set [12] is reported as about 70%.

The record behind these values is US12263248B2, “Compounds and compositions for intracellular delivery of therapeutic agents” (ModernaTX, Inc., priority 2018, dated 2025).
